Laboratory results: US8975406B2, “Compound useful for the treatment of degenerative and inflammatory diseases” (Galapagos N.V., priority 2011, dated 2015)

What was measured:
[1] = test system: rat CIA model; test: Rat collagen induced arthritis (CIA) model; type: in vivo; details: dose of 0.1 mg/kg
Experimental: Completed Freund's adjuvant (CFA) and incomplete Freund's adjuvant (IFA) were purchased from Difco. Bovine collagen type II (CII), lipopolysaccharide (LPS), and Enbrel was obtained from Chondrex (Isle d'Abeau, France); Sigma (P4252, L′Isle d'Abeau, France), Whyett (25 mg injectable syringe, France) Acros Organics (Palo Alto, Calif.), respectively. All other reagents used were of reagent grade and all solvents were of analytical grade.
Dark Agouti rats (male, 7-8 weeks old) were obtained from Harlan Laboratories (Maison-Alfort, France). Rats were kept on a 12 hr light/dark cycle (0700-1900). Temperature was maintained at 22° C., and food and water were provided ad libitum.
One day before the experiment, CII solution (2 mg/mL) is prepared with 0.05 M acetic acid and stored at 4° C. Just before the immunization, equal volumes of adjuvant (IFA) and CII are mixed by a homogenizer in a pre-cooled glass bottle in an ice water bath. […]
Arthritis is scored according to the method of Khachigian 2006, Lin et al 2007 and Nishida et al. 2004). […]
The area under the curve (AUC) from day 1 to day 14 is calculated for each individual rat. The AUC of each animal is divided by the average AUC obtained for the vehicle in the study from which the data on that animal is obtained and multiplied by 100 (i.e. the AUC was expressed as a percentage of the average vehicle AUC per study). […]

[2] = target: T1, TYK2 (Homo sapiens, UniProt P29597); test: TYK2 Ki determination assay; type: biochemical; details: Lineweaver-Burk plot, polyGT substrate, varying ATP
T1 construct: catalytic domain (amino acids 871-1187; catalog number 08-147); GST; purchased Carna Biosciences 08-147
T1 sequence (P29597 871-1187): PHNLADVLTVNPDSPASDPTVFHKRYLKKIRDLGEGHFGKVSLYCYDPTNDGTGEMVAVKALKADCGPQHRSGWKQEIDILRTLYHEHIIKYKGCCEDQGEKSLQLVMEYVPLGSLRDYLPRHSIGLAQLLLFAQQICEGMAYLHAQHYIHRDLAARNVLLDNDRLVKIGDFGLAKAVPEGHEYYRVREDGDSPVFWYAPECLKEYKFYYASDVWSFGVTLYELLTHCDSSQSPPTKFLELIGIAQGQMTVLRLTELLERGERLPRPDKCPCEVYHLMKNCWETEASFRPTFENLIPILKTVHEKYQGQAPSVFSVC
Experimental: For the determination of Ki, different amounts of compound are mixed with the enzyme and the enzymatic reaction is followed as a function of ATP concentration. The Ki is determined by means of double reciprocal plotting of Km vs compound concentration (Lineweaver-Burk plot). TYK2 (Carna Biosciences, 08-147) was used at a final concentration of 160 ng/ml. The substrate was Poly(Glu,Tyr)sodium salt (4:1), MW 20 000-50 000 (Sigma, P0275) The reaction was performed in 25 mM Hepes pH 7.2, 50 mM NaCl, 0.5 mM EDTA, 1 mM DTT, 5 mM MnCl2, 10 mM MgCl2, 0.1% Brij-35 with varying concentrations of ATP and compound and stopped by addition of 150 mM phosphoric acid. Measurement of incorporated phosphate into the substrate polyGT was done by loading the samples on a filter plate (using a harvester, Perkin Elmer) and subsequent washing. Incorporated ^33P in polyGT is measured in a Topcount scintillation counter after addition of scintillation liquid to the filter plates (Perkin Elmer).

Ki [2]: 135 nM
SMILES: CC(=O)Nc1cc2c(-c3ccc(CN4CCN(S(C)(=O)=O)CC4)c(F)c3)cccn2n1 [Compound 21]
normalized clinical score values (calculated as AUC or as the difference from day 1 to day 14) [1]: statistically significant improvements
